The source made the active and inactive calls. The rule behind the calls is not given here.

Usually IC50 stands for the concentration that gives 50% inhibition. A low value points to greater potency.

One assay deals with T1, Endothelin-1 receptor (Homo sapiens, UniProt P25101).
T1 sequence (P25101 whole entry): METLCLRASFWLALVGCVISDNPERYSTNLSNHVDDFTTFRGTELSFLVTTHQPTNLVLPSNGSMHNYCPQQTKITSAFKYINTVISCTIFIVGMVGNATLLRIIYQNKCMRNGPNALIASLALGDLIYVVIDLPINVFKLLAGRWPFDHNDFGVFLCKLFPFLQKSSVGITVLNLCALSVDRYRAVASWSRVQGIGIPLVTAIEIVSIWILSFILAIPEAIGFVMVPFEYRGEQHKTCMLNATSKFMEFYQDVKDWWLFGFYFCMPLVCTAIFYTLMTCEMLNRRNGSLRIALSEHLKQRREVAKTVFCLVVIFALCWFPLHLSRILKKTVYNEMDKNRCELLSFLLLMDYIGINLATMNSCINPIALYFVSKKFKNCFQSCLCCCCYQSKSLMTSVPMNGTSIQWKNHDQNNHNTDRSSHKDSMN
The assay can be described thus: Displacement of 125I-labelled endothelin-1 from human ETA receptor expressed in CHOK1 cell membranes. Details: species or system CHO-K1.

The target in assay [1] is T2, Type-1 angiotensin II receptor (Homo sapiens, UniProt P30556).
T2 sequence (P30556 whole entry): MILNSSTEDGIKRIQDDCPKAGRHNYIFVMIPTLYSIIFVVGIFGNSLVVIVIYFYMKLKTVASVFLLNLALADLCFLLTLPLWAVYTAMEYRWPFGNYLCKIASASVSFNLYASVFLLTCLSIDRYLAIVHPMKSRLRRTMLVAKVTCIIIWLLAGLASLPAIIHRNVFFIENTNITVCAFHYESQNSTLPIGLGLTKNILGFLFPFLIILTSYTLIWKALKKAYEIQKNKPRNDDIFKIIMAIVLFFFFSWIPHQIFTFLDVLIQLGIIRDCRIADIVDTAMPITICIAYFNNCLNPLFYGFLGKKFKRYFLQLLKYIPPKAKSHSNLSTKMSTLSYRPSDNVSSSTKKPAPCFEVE
Description: Displacement of 125I-labelled Sar1-Ile8-angiotensin-2 from human AT1 receptor.

Assay [2] concerns Rattus norvegicus. Description: Antihypertensive activity in spontaneous hypertensive rat assessed as mean blood pressure at 20 mg/kg, po after 6 hrs. In kind it is functional.
Assay [3] has as its system Rattus norvegicus. The assay can be described thus: Antihypertensive activity in spontaneous hypertensive rat assessed as time duration of lowering mean blood pressure >20 mmHg at 20 mg/kg, po. In kind it is functional.
Assay [4] relates to Rattus norvegicus. Description: Antihypertensive activity in spontaneous hypertensive rat assessed as mean blood pressure at 20 mg/kg, po after 24 hrs. In kind it is functional, organism-based.
The test system of assay [5] is Rattus norvegicus. Description: Antihypertensive activity in spontaneous hypertensive rat assessed as heart rate at 20 mg/kg, po after 1 to 24 hrs. In kind it is functional, organism-based.
For assay [6], the system named is Rattus norvegicus. The assay can be described thus: Antihypertensive activity in spontaneous hypertensive rat assessed as mean blood pressure at 20 mg/kg, po after 4 hrs. In kind it is functional.

For the compound `CCCCNC(=O)c1cc(C)c2nc(CCC)n(Cc3ccc(-c4ccccc4C(=O)Nc4nnn[nH]4)cc3)c2c1`, the half-inhibitory concentration (IC50) on Endothelin-1 receptor was > 20 µM; in assay [1] it was 0.439 µM.

Turning to `CCCc1nc2c(C)cc(C(=O)NCCN3CCOCC3)cc2n1Cc1ccc(-c2ccccc2C(=O)Nc2nnn[nH]2)cc1`, the values for the IC50 (on Endothelin-1 receptor; in assay [1]) were 0.165 µM and 0.044 µM, respectively.

For the compound `CCCc1nc2c(C)cc(C(=O)NCCc3ccccc3F)cc2n1Cc1ccc(-c2ccccc2C(=O)Nc2nnn[nH]2)cc1`, the IC50 at Endothelin-1 receptor was found to be 11 µM; in assay [1], 0.09 µM.

Regarding `CCCc1nc2c(C)cc(C(=O)NCCN3CCCCC3)cc2n1Cc1ccc(-c2ccccc2C(=O)Nc2nnn[nH]2)cc1`, the concentration for half-maximal inhibition (IC50) on Endothelin-1 receptor was > 20 µM; in assay [1] it was 0.0675 µM.

As for `CCCc1nc2c(C)cc(C(=O)NCc3ccccc3)cc2n1Cc1ccc(-c2ccccc2C(=O)Nc2nnn[nH]2)cc1`, the IC50 amounted to 0.01 µM on Endothelin-1 receptor and 0.082 µM in assay [1].

With `CCCc1nc2c(C)cc(C(=O)NCCc3ccccc3)cc2n1Cc1ccc(-c2ccccc2C(=O)Nc2nnn[nH]2)cc1`, the half-inhibitory concentration (IC50) on Endothelin-1 receptor amounted to 0.126 µM; in assay [1], 0.0039 µM. Further, the Activity in the assay on Rattus norvegicus [2] was determined as 24 mmHg. For the same compound, in the assay with Rattus norvegicus [3], the Time was 4 h. Besides, the result in the assay with Rattus norvegicus [4] and in the assay with Rattus norvegicus [5] was Active.

As to `CCCNC(=O)c1cc(C)c2nc(CCC)n(Cc3ccc(-c4ccccc4C(=O)Nc4nnn[nH]4)cc3)c2c1`, the figures for the IC50 (on Endothelin-1 receptor; in assay [1]) were > 20 µM and 0.363 µM, respectively.

`CCCc1nc2c(C)cc(C(=O)NCCN3CCN(C)CC3)cc2n1Cc1ccc(-c2ccccc2C(=O)Nc2nnn[nH]2)cc1`: the half-maximal inhibitory concentration (IC50) at Endothelin-1 receptor came out at 9.1 µM; in assay [1], 0.0535 µM.

As for `CCCc1nc2c(C)cc(C(=O)NCc3ccccc3OC)cc2n1Cc1ccc(-c2ccccc2C(=O)Nc2nnn[nH]2)cc1`, the IC50 on Endothelin-1 receptor came out at 7.2 µM; in assay [1], 0.0733 µM.

As for `CCCc1nc2c(C)cc(C(=O)NCCc3ccc(OC)c(OC)c3)cc2n1Cc1ccc(-c2ccccc2C(=O)Nc2nnn[nH]2)cc1`, the figures for the concentration for half-maximal inhibition (IC50) (on Endothelin-1 receptor; in assay [1]) were > 20 µM and 0.093 µM, respectively.

For the compound `CCCc1nc2c(C)cc(C(=O)NCc3ccc(OC)c(OC)c3)cc2n1Cc1ccc(-c2ccccc2C(=O)Nc2nnn[nH]2)cc1`, the IC50 on Endothelin-1 receptor came out at 10 µM; in assay [1] it was 0.0329 µM.

For the compound `CCCc1nc2c(C)cc(C(=O)NCCN3CCCC3)cc2n1Cc1ccc(-c2ccccc2C(=O)Nc2nnn[nH]2)cc1`, the values for the IC50 (on Endothelin-1 receptor; in assay [1]) were 7.1 µM and 0.0694 µM, respectively.

For the compound `CCCc1nc2c(C)cc(C(=O)NCCc3cc(OC)ccc3OC)cc2n1Cc1ccc(-c2ccccc2C(=O)Nc2nnn[nH]2)cc1`, the IC50 at Endothelin-1 receptor was > 20 µM; in assay [1], 0.0307 µM.

In the case of `CCCc1nc2c(C)cc(C(=O)NCCc3ccc(F)cc3)cc2n1Cc1ccc(-c2ccccc2C(=O)Nc2nnn[nH]2)cc1`, the half-inhibitory concentration (IC50) on Endothelin-1 receptor is > 20 µM; in assay [1], 0.14 µM.

On to `CCCc1nc2c(C)cc(C(=O)NCCc3ccc(OC)cc3)cc2n1Cc1ccc(-c2ccccc2C(=O)Nc2nnn[nH]2)cc1`, for which the IC50 is 13 µM on Endothelin-1 receptor and 0.0878 µM in assay [1].

As for `CCCc1nc2c(C)cc(C(=O)NC(C)(C)C)cc2n1Cc1ccc(-c2ccccc2C(=O)Nc2nnn[nH]2)cc1`, the IC50 at Endothelin-1 receptor is > 20 µM; in assay [1] it was 0.39 µM.

`CCCc1nc2c(C)cc(C(=O)NCCc3cccc(OC)c3)cc2n1Cc1ccc(-c2ccccc2C(=O)Nc2nnn[nH]2)cc1`: the IC50 on Endothelin-1 receptor was > 20 µM; in assay [1], 0.0369 µM.

For the compound `CCCc1nc2c(C)cc(C(=O)Nc3ccccc3)cc2n1Cc1ccc(-c2ccccc2C(=O)Nc2nnn[nH]2)cc1`, the values for the IC50 (at Endothelin-1 receptor; in assay [1]) were 14 µM and 0.0737 µM, respectively.

For `CCCc1nc2c(C)cc(C(=O)NCCc3ccccc3OC)cc2n1Cc1ccc(-c2ccccc2C(=O)Nc2nnn[nH]2)cc1`, the IC50 is 7 µM on Endothelin-1 receptor and 0.0261 µM in assay [1].

Regarding `CCCCC1=NC2(CCCC2)C(=O)N1Cc1ccc(-c2ccccc2-c2nnn[nH]2)cc1` [IRBESARTAN], the Activity in the assay on Rattus norvegicus [6] was 20 mmHg. In the assay with Rattus norvegicus [3], the Time came out at 1 h. Also, the outcome in the assay with Rattus norvegicus [4] and with Rattus norvegicus [5] was Active.

As to `CCCc1nc2c(C)cc(C(=O)NC(C)C)cc2n1Cc1ccc(-c2ccccc2C(=O)Nc2nnn[nH]2)cc1`, the IC50 on Endothelin-1 receptor is > 20 µM; in assay [1], 0.161 µM.

Regarding `CCCc1nc2c(C)cc(C(=O)NCc3ccc(OC)cc3)cc2n1Cc1ccc(-c2ccccc2C(=O)Nc2nnn[nH]2)cc1`, the IC50 at Endothelin-1 receptor is > 20 µM; in assay [1], 0.55 µM.

On to `CCCc1nc2c(C)cc(C(=O)NCc3cccc(OC)c3)cc2n1Cc1ccc(-c2ccccc2C(=O)Nc2nnn[nH]2)cc1`, for which the half-maximal inhibitory concentration (IC50) was found to be 0.625 µM on Endothelin-1 receptor and 0.0539 µM in assay [1].

On to `CCCc1nc2c(C)cc(C(=O)Nc3ccccc3OC)cc2n1Cc1ccc(-c2ccccc2C(=O)Nc2nnn[nH]2)cc1`, for which the IC50 stood at 0.886 µM on Endothelin-1 receptor and 0.347 µM in assay [1].

Values taken from ChEMBL document CHEMBL3751753, “Synthesis and biological evaluation of 4-[(benzimidazol-1-yl) methyl]biphenyl-2-amides as dual angiotensin II and endothelin A receptor antagonists” (Medchemcomm, 2015).
